According to patent US3954726A, “Double salts of S-adenosil-L-methionine” (Bioresearch Limited, priority 1973, dated 1976):
Read-outs that look alike come from different tables or passages of the source.

Legend:
physchem [1] = type: physicochemical
rabbits = conditions: rabbit, in vivo
rats = conditions: rat, in vivo
rabbit [2] = assay: Local tolerability of intermuscular and intravenous injection; type: in vivo
man = assay: Tolerability in young volunteer healthy subjects (pressure, pulse, respiration, ECG, hemopoietic, hepatic and renal); type: in vivo
[3] = Hepatic steatosis in rats (Handler diet, acute alcoholic intoxication, carbon tetrachloride, bromobenzene); type: in vivo, rat
Text: This was confirmed by successive pharmacological tests.

[4] = Hepatic phospholipids in rats after intoxication with CCl4; type: in vivo, rat; conditions: for Total phospholipids: average ± E.S. of 10 values
Text: This was confirmed by successive pharmacological tests. […] Hepatic phospholipids in rats after intoxication with CCl4 and treatment with SAM.

[5] = Hepatic cholesterol degeneration in the rat (Ridout diet); type: in vivo; conditions: 3 weeks; for Fresh liver weight: cholesterol diet
Experimental: In studying the hepatoprotective activity we have used an experimental device which produces in the rat the so-called hepatic cholesterol degeneration (Ridout and Coll., Biochem. J. 52, 99, 1952).
In this method, by means of a suitable diet, a conspicuous increase in the total hepatic fats and hepatic cholesterol are obtained in the animals. The substances which act in the lipidic metabolism reduce or annul this increase.
The animals were divided into six groups. The first group was administered with a diet which was varied at will. The second group was administered with the basic diet of Ridout (20 g per rat per day); the other groups were administered with the same diet in the same doses but enriched with cholesterol to the extent of 0.2 g/rat/day. The treatment lasted 3 weeks.
The groups 4,5,6 were administered with SAM in the following doses: 1,2,5 mg/kg/i.p. per day.
At the end of 3 weeks all the animals were killed, the livers were withdrawn and the total fats (Best and Coll., Biochem. J. 40, 368, […]) and cholesterol (Sperry and Brand, J. Biol. Chem. 150, 315, 1943) were determined.

[6] = Edema by carragenine (acute inflammation); type: in vivo; conditions: orally 20-100 mg/kg and parenterally 10-20 mg/kg
Text: (§1) Ot the various tests we shall mention the most classic, namely the edema by carragenine and by egg white as a test for acute inflammation; and granuloma by cotton […] arthritis by adjuvant as a test for chronic inflammation. […] The analgesia tests were in the form of the hot plate tests and stretching by acetic acid, and the Randal and Drlitto tests in the rat.

[7] = Edema by egg white (acute inflammation); type: in vivo; conditions: orally 20-100 mg/kg and parenterally 10-20 mg/kg
Text: as §1

[8] = Granuloma by cotton peelets (chronic inflammation); type: in vivo; conditions: orally 20-100 mg/kg and parenterally 10-20 mg/kg
Text: as §1

[9] = Arthritis by adjuvant (chronic inflammation); type: in vivo; conditions: orally 20-100 mg/kg and parenterally 10-20 mg/kg
Text: as §1

[10] = Hot plate test (analgesia); conditions: rat, in vivo
Text: as §1

[11] = Stretching by acetic acid (analgesia); conditions: rat, in vivo
Text: as §1

[12] = Randal and Drlitto test (analgesia); type: in vivo; conditions: rat
Text: as §1

[13] = Hexobarbital sleeping time in mice; type: in vivo, mouse
Experimental: A further aspect considered by us was the possible action of SAM on the sleeping time by barbiturates. For this purpose an experiment was made in which groups of mice received hexobarbital in a dose of 80 mg/kg/i.p. in accordance with the method of Holten and Larsen (Acta Pharmacol. […] (table).

[14] = Clinical: metabolism of lipids (hepatosteatosis, hyperdislipidemia); type: in vivo, human
Text: Following the information gained from the pharmacological tests, the clinical tests were orientated on morbid affections in which the following appear primitively or secondarily altered: […]

[15] = Clinical: arteriosclerosis, hypoxydotic states, post-apoplectic syndromes; type: in vivo, human
[16] = Clinical: hypoprotidemias, disprotidemias, hepatopathias, cyrrotic states, malabsorption; type: in vivo, human; conditions: 20-200 mg per day
Experimental: 2. Hundreds of subjects were treated clinically affected with: secondary hypoprotidemias and disprotidemias; persistent and aggressive cronic hepatopathias; precyrrotic and cyrrotic states; malabsorption syndromes, protide dispersing syndromes.

[17] = Clinical: depressive forms (tests of Hamilton and Wittenberg); type: in vivo, human; conditions: 20-50 mg 3-4 times per day, 5-15 days, no other therapy
[18] = Clinical: Parkinsons disease and Parkinsonisms, in association with Levodopa; type: in vivo, human
[19] = type: in vivo, human
[20] = Clinical: antalgic activity in neurological frameworks and cephalalgia; type: in vivo, human
Experimental: The antalgic activity of SAM was also tested in different subjects with different neurological frameworks: neuritis, polyneuritis, anthralgia, sciatica, radiocolitis, torticollis.

[21] = Clinical: disturbances of the sleeping-waking rhythm; type: in vivo, human; conditions: 10-30 mg orally, insomnia
[22] = dry state
Text: (§2) The figures refer to the percentage of SAM residue after the times indicated:

rabbit [23] = conditions: in vivo, 40 mg/kg
cat = conditions: in vivo, 40 mg/kg
physchem [24] = conditions: dry state, percentage of SAM residue
Text: as §2

[25] = hyperdislipidemia in the uncompensated stage
[26] = intermuscular, intravenous or oral

C[S+](CC[C@H](N)C(=O)O)C[C@H]1O[C@@H](n2cnc3c(N)ncnc32)[C@H](O)[C@@H]1O (stereo partly shown) [SAM, SAM disulphate di-p-toluenesulphonate]
hygroscopicity (physchem [1]; crystalline salt): not very hygroscopic
solubility (physchem [1]; water): > 200 mg/mL
tetratogenic actions or malformations (rabbits): no tetratogenic actions were encountered or any malformations in the embryons or terminal feti
tetratogenic actions or malformations (rats): no tetratogenic actions were encountered or any malformations in the embryons or terminal feti
local tolerability (rabbit [2]; intermuscular injection, repeated over 180 days): excellent
local tolerability (rabbit [2]; intravenous, marginal vein of the auricular pavillon, rabbit): excellent
electrocardiograph trace (PQ interval, ST section, extrasistol) (man; 30" to 20' from administration): does not show any variations
hemopoietic apparatus, hepatic and renal operation (man; man): no variations which were statistically significant from normal
minimum and maximum pressure, pulse and respiratory frequency (man; rapid intravenous or phleboclysis, 10-300 mg, 1 minute to 24 hours): does not show any variation from normal values
accumulation of lipids at the hepatocite level [3]: significantly reduced the accumulation of lipids
Total phospholipids ([4]; CCl4 + SAM 15 mg/kg/i.p.): 27.20 ± 1.25 mg/g
Total phospholipids ([4]; CCl4 + SAM 150 mg/kg/i.p.): 20.87 ± 0.42 mg/g
levels of phospholipids reduced after intoxication with CCl4 ([4]; rats, CCl4): favours the restoration of normal levels of phospholipids
protection from hepatic cholesterol degeneration ([5]; 5 mg/kg): completely protected
protection from hepatic cholesterol degeneration ([5]; 1-2 mg/kg/i.p.): poorly protected
Fresh liver weight ([5]; Batch IV, SAM 1 mg/kg/i.p. per day): 17 g
Fresh liver weight ([5]; Batch V, SAM 2 mg/kg/i.p. per day): 16 g
Fresh liver weight ([5]; Batch VI, SAM 5 mg/kg/i.p. per day): 16 g
antiinflammatory activity, edema by carragenine [6]: active
antiinflammatory activity, edema by egg white [7]: active
antiinflammatory activity, granuloma by cotton peelets [8]: active
antiinflammatory activity, arthritis by adjuvant [9]: active
analgesic activity, hot plate [10]: active
analgesic activity, stretching by acetic acid [11]: active
analgesic activity, Randal and Drlitto test [12]: active
prolonging the sleeping time induced by hexobarbital ([13]; 10 mg/kg/i.p.): active in prolonging the sleeping time
Sleeping time ([13]; SAM 10 mg/kg/i.p., hexobarbital 80 mg/kg/i.p.): 41.2 ± 5.8 min
hypocholesterolemising and hypolipemising action ([14]; about 20-30 mg administered 2-3 times per day): proportional to the dose
hepatic lipids in hepatosteatosis ([14]; bioptic examination, even after 60 days from the end of treatment): rapid fall in the hepatic lipids
altered β/α lipoproteic ratios [14, 25]: normalises the altered β/α lipoproteic ratios
total cholesterolemia and hypertriglyceridemia [14, 25]: marked fall
recovery of functions in clear hypoxydotic states ([15]; hypoxydotic states): very quick and statistically significant
symptomatology of arteriosclerosis ([15]; intramuscular, intravenous or phleboclysis, 20-40 mg 3-4 times per day): very favourable modification of the sumptomatology
improvement of the clinical framework in post-apoplectic syndromes ([15]; post-apoplectic syndromes): greater rapidity was found in the improvement of the clinical framework
subjective symptomology and general objective conditions [16]: often very important improvement
tests of hepatic functionality [16]: normalizing of all the tests of hepatic functionality
albumin amount [16, 26]: an increase in the albumin amount
altered percentage ratios between the electrophoretic fractions of the serum [16, 26]: tendency to normalise
total protidemia [16, 26]: statistically significant increase
remission of the main parameters for the diagnosis of depressive forms [17]: significant remission
Parkinson tremor ([18]; 10-40 mg per day with Levodopa): favourable modifications
akinesia and rigidity ([18]; 10-40 mg per day with Levodopa, versus Levodopa only): statistically more significant improvement
Levodopa side effects ([18]; 10-40 mg per day with Levodopa, nausea, vomit, inappetite, hypotension, asthenia, cephalea, hypersudoration, insomnia): significantly blocks
Levodopa-dependent psychic disturbances ([18]; with Levodopa): distinctly improves
activity in osteoarthritic forms ([19]; 30 mg twice a day i.m. or i.v., and 30-50 mg orally 4 times per day): active in all osteoarthritic forms treated
muscular spasm, limitation of movement, localised pain, rigidity ([19]; after 7 days of treatment, versus placebo): influenced in a statistically significant manner
therapeutic efficiency compared with indomethacin ([19]; double blind study): equal to indomethacin
concealed blood in the feces ([19]; human, in vivo): never showed any modification
gastric pyrosis ([19]; human, in vivo): No case
antalgic effect in neurological frameworks ([20]; 15 mg twice a day intermuscular or 30-50 mg 3-4 times per day orally): available and efficient from the first day of administration
recurring and resistant cephalalgia ([20]; orally in masticable tablets): Analogous results
altered sleeping-waking ratios [21]: considerably improve
percentage of SAM residue ([22]; 720 h): 100.1%
percentage of SAM residue ([22]; 1440 h): 99.9%
change in carotid pressure, cardiac and respiratory frequency or electrocardiac trace (rabbit [23]): does not cause any change
change in carotid pressure, cardiac and respiratory frequency or electrocardiac trace (cat): does not cause any change
remaining at 2880 h (physchem [24]): 100%
remaining at 4320 h (physchem [24]): 100%
